Assay results reported in patent US20190159449A1, “USE OF NON-PROLINE CYCLIC AMINO ACIDS TO INCREASE THE TOLERANCE OF PLANTS TO CONDITIONS OF OSMOTIC STRESS” (CONSEJO SUPERIOR DE INVESTIGACIONES CIENTÍFICAS (CSIC), priority 2016, published 2019).
Marks after values point to notes of the source that are not given here.

How the values were obtained:
Format in all cases: in vivo
[1] = tested on: Solanum lycopersicum (tomato); assay: Salt stress growth assay of hydroponic tomato plants after 24 h root treatment; conditions: 2.5 mM; for Decrease in growth in saline conditions with respect to growth in the control solution: 7 days in NaCl solution, fresh weight; for Increase in tolerance compared with the proline treatment / Increase in tolerance compared with the control: saline conditions; for Increase in tolerance compared with the proline treatment: versus proline 2.5 mM; for Increase in tolerance compared with the control: versus reference group
Procedure: As an example, tomato (Solanum lycopersicum) of the variety Realeza pear was used. […] From the first day, the solution was generously aerated by air pumps (30 min per day). The plants were maintained during two days with this proportion of solution and distilled water, and then they were removed from the medium and placed, under the same conditions, in plastic containers during 24 hours with the different treatments in distilled water (table 5): After 24 hours, the plants were again introduced in the trays with the same proportion of distilled water/nutrient solution stated above and they were maintained like this for 48 hours. […] Then, the growth of treated and untreated plants was compared, in normal conditions and salinity conditions. For the statistical analysis, the data collected was subjected to the normality test of the Kolmogorov-Smirnov test with the Lilliefors correction. Levene's test was used to verify the homoscedasticity of the data. As the data behaved following a normal distribution, its measurements were compared by one-way ANOVA and the significant differences were calculated using the Bonferroni post hoc test. The statistical analyses were performed with the SSPS computer package, version 20 for Windows.

[2] = tested on: Solanum lycopersicum (tomato); assay: Drought (water deficit) assay of tomato in greenhouse conditions; conditions: four root treatments at 2.5 mM, after 10 days of drought; for Net photosynthesis: versus drought reference
Procedure: The crop used was tomato (Solanum lycopersicum) of the “Gransol” capa negra variety. The experiment was performed in a glass greenhouse with four tables measuring 10 metres in length by 2 metres in width. Drip irrigation was used, supplied by self-compensated drippers to control the flow of water at all times.
5-week old seedings were transplanted to 2-litre capacity pots using a mixture of peat and river sand to facilitate drainage. In total, 120 tomato plants were used. Four treatments were performed on 40 plants after the transplant (with 15 days between each treatment), adding 50 ml of a 2.5 mM concentration of Pyroglutamic to each pot.
Another 40 plants were treated via root applications using 2.5 mM of pipecolinic acid. The remaining plants randomly distributed throughout the greenhouse were treated with distilled water by way of control. The drought assay commenced on completing the four treatments, which was performed by removing the dripper from the 20 plants randomly chosen for each one of the treatments. The plants were deprived of water for 10 days.
The relative water content of the leaf was estimated after 10 days of drought for each one of the treatments, in control conditions and drought conditions, using 15 leaves. The following formula was used for this:
R.W.C(%)/=[(Fw−Dw)/(Tw−Dw)]×100
With Fw: fresh weight; Dw: dry weight; Tw: turgor weight. RWC is the measurement most commonly used to estimate the possible water deficit a plant leaf has.
Furthermore, photosynthesis was estimated with the “Lc-pro sd” system (ADC Bioscientific). To do this, the tomato leaves were stimulated with a light source at 1000 μmol m-2 s-1, with this light intensity being previously estimated to achieve the maximum photosynthesis in our crop and conditions. To do this, the parameters of net photosynthesis (A) and evapotranspiration (E) were determined, calculating with them the efficiency in water use (A/E) as described by Lambers et al. (2008. Plant Physiological Ecology. 2nd edition. Springer, New York). The measurements were taken after 10 days of assay from six plants for each one of the treatments.
The data of the different variables were subjected to the normality test using the Kolmogorov-Smirnov test with the Lilliefors correction. Levene's test was used to verify the homoscedasticity of the data. As the data behaved following a normal distribution, its measurements were compared by one-way ANOVA and the significant differences were calculated using the Bonferroni post hoc test. The statistical analyses were performed with the SSPS computer package, version 20 for Windows.

Arabidopsis thaliana = assay: Salt stress (50 mM NaCl) growth assay of hydroponically grown Arabidopsis thaliana after 24 h root treatment; conditions: for Fresh weight / RGR (relative growth rate) / S.I (sensitivity index) / % reduction RGR: 2.5 mM treatment 24 h; for Fresh weight: aerial part; for S.I (sensitivity index) / % reduction RGR: 7 days with 50 mM NaCl; for S.I (sensitivity index): S.I = DWs − DWc/DWc; for % reduction RGR: relative to control conditions; for Effect on growth and tolerance to salt stress (in words): 2.5 mM treatment, 50 mM NaCl
Procedure: The conditions described below were used as the base for all examples included below. The growing conditions, such as the nutrient solution and the substrate used have been optimized to perform this type of experiments. Likewise, the dose of NaCl used has been optimized for this type of experiments since 50 mM makes it possible to evaluate if a treatment is capable of increasing tolerance to salinity (Jiménez-Arias et al., 2015. Environmental and Experimental Botany 120, 23-30).
A hydroponic culture system was used for the cultivation of the Arabidopsis thaliana plants necessary for the assays. This system was established in hydroponics trays with 1.9 L capacity (Araponics®) wherein 18 plants were grown per container. A mixture of river sand with two different granulometries was used as physical substrate. The seeds were sowed in seed-holders, which were deposited during one week in a small greenhouse consisting of a high-density polyethylene tray with river sand (washed siliceous sand, with medium granulometry) with sterile distilled water covered with a transparent plastic sheet which was deposited in a growth chamber at 22±2° C., with a photoperiod of 16 hours of light (100-110 μmol m-2 s-1 of PAR) and with 100% relative humidity. After one week, the seed-holders with the seedlings were transferred to the hydroponics trays in the same photoperiod and light intensity conditions but with 60-70% of relative humidity. The seedlings were maintained without aeration during the first week, after this the solution (Table 1) was generously aerated using aeration pumps and was renewed every 7 days.
In this way, 21-day old plants were treated during 24 hours in nutrient solution enriched with a concentration of 2.5 mM of alanine. Subsequently, the plants were deposited in normal nutrient solution for 24 hours and they later grew for 7 days in nutrient solution with or without a supply of 50 mM of NaCl. This experiment was repeated twice, using 12 plants per experiment, with the value shown in table 2 being the average of 24 plants for each one of the conditions.
Subsequently, the wet weight of the aerial part of the plants was determined.
21-day old plants were treated during 24 hours in nutrient solution enriched with a concentration of 2.5 mM of pyroglutamic acid or pipecolinic acid. Subsequently, the plants were deposited in normal nutrient solution for 24 hours and they later grew for 7 days in nutrient solution with or without a supply of 50 mM of NaCl. This experiment was repeated twice, using 12 plants per experiment, with the value shown in table 2 being the average of 24 plants for each one of the conditions.
The plants were deposited in nutrient solution enriched with one of the compounds indicated above for 24 hours and they later grew for 7 days in nutrient solution with a supply of 50 mM of NaCl. As control, the plants grown on nutrient solution and NaCl were used. This experiment was repeated twice, using 12 plants per experiment, with the value shown in table 2 being the average of 24 plants for each one of the conditions.
Two measurements were used in order to illustrate the defence to salt stress. First, the values for the sensitivity index (S.I) described by Saadallah et al. (2001, Agronomie 21, 627-634) is shown.
The greater the negative value of the S.I., the greater the negative effect of salinity on the plant. The second measurement is a percentage of reduction in the relative a growth rate of the plant subjected to conditions of salt stress.

[3] = 7 days in nutrient solution with 50 mM NaCl (saline conditions)
[4] = 7 days in nutrient solution without NaCl (optimal conditions)
[5] = 7 days with 50 mM NaCl (saline conditions)
[6] = 7 days without NaCl (optimal conditions)

Row | Compound | Decrease in growth in saline conditions with respect to growth in the control solution [1] [%] | Increase in tolerance compared with the proline treatment [1] [%] | Increase in tolerance compared with the control [1] [%] | Decrease in relative water content of the leaf with respect to its control [2] | Net photosynthesis [2] | Fresh weight (Arabidopsis thaliana; [3]) [mg plant] | Fresh weight (Arabidopsis thaliana; [4]) [mg plant] | RGR (relative growth rate) (Arabidopsis thaliana; [5]) | S.I (sensitivity index) (Arabidopsis thaliana) | % reduction RGR (Arabidopsis thaliana) | RGR (relative growth rate) (Arabidopsis thaliana; [6]) | Effect on growth and tolerance to salt stress (in words) (Arabidopsis thaliana) | Decrease in growth under control conditions with respect to the reference ([1]; 7 days, control solution without salt, plant weight) [%]
1 | O=C(O)C1CCCCN1 (stereo not shown) [Pipecolinic acid, pipecolinic acid] | 7 | 83 | 78 | 5.1% | greater than the drought reference plants | 133.9 ± 21 | 145.9 ± 22 | 0.45 | −0.07** | 8.12** % | 0.46 | effect on the increased tolerance to salt stress is proven | 
2 | O=C(O)[C@@H]1CCCN1 [Proline, proline] | 42 |  |  |  |  |  |  |  |  |  |  |  | 
3 | O=C(O)[C@@H]1C[C@@H](O)CN1 [Hydroxyproline, hydroxyproline, reference compound] | 17 |  |  |  |  |  |  |  | −0.25** | 24.34** % |  |  | 35
4 | C[C@H](N)C(=O)O [Alanine, alanine, reference compound] |  |  |  |  |  | 36 ± 2 | 142 ± 8 | 0.11** |  |  | 0.58 | not capable of promoting growth, nor increasing tolerance to salinity | 
5 | O=C1CC[C@@H](C(=O)O)N1 [Pyroglutamic acid, pyroglutamic acid] | 9 | 78 | 72 | did not show this decrease | greater than the drought reference plants | 170.4 ± 15 | 183.9 ± 15 | 0.49 | −0.1** | 10.22** % | 0.56 | effect on the increased tolerance to salt stress is proven | 
